Reference: article PMC11580438, “Enhanced cell stress response and protein degradation capacity underlie artemisinin resistance in Plasmodium falciparum” (mSphere, 2024)

Experiments:
[1] = molecular target: T1, P. falciparum proteasome, β1 activity (20S CP / 26S) (Plasmodium falciparum, UniProt Q8I0U7); assay: Ac-nLPnLD-AMC cleavage in lysate of treated trophozoites; type: cell-based; details: intact parasites treated 3 h with 50 or 700 nM, then lysed; direct action on the proteasome not shown; non-specific alkylator; pH 7.5, 37 °C
T1 construct: gene PF3D7_0931800; native proteasome in NP-40 lysate of 26-30 hpi trophozoites; with Proteasome subunit beta type-7 (beta2 subunit); Proteasome subunit beta type-5
T1 sequence (Q8I0U7 entry or part of it): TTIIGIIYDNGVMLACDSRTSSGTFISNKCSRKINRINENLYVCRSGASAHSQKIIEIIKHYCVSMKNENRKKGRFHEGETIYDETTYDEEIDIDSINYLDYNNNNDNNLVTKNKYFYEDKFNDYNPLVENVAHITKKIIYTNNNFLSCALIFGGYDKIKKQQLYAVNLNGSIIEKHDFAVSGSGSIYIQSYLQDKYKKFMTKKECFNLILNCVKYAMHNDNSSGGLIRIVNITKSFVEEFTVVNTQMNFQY

[2] = molecular target: T2, P. falciparum proteasome, β5 activity (20S CP / 26S) (Plasmodium falciparum, UniProt Q8IJT1); assay: Suc-LLVY-AMC cleavage in lysate of treated trophozoites; type: cell-based; details: intact parasites treated 3 h with 50 or 700 nM, then lysed; direct action on the proteasome not shown; non-specific alkylator; pH 7.5, 37 °C
T2 construct: gene PF3D7_1011400; native proteasome in NP-40 lysate of 26-30 hpi trophozoites; with Proteasome subunit beta type-7 (beta2 subunit); Proteasome subunit beta type-6 (beta1 subunit)
T2 sequence (Q8IJT1 entry or part of it): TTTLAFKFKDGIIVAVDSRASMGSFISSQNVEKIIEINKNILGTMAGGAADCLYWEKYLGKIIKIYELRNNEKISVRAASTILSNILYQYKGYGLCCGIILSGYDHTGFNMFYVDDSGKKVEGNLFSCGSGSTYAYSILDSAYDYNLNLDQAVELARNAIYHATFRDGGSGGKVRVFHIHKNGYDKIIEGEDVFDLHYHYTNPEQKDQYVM

[3] = molecular target: T3, P. falciparum proteasome, β2 activity (20S CP / 26S) (Plasmodium falciparum, UniProt Q8I6T3); assay: Ac-RLR-AMC cleavage in lysate of treated trophozoites; type: cell-based; details: intact parasites treated 3 h with 50 or 700 nM, then lysed; direct action on the proteasome not shown; non-specific alkylator; pH 7.5, 37 °C
T3 construct: gene PF3D7_1328100; native proteasome in NP-40 lysate of 26-30 hpi trophozoites; with Proteasome subunit beta type-5; Proteasome subunit beta type-6 (beta1 subunit)
T3 sequence (Q8I6T3 entry or part of it): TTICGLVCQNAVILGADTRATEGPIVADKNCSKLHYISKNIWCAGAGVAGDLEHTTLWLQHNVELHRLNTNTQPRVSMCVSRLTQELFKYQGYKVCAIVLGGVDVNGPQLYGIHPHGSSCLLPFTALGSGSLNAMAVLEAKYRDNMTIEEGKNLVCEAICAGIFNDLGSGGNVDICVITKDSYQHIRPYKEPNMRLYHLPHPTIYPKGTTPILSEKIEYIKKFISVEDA

[4] = molecular target: T2, P. falciparum proteasome, β5 activity (20S CP / 26S); assay: Suc-LLVY-AMC cleavage in lysate of treated trophozoites; type: cell-based
[5] = system: T4, P. falciparum proteasome, β5 activity (20S CP / 26S); details: intact Kelch13 C580Y parasites treated 3 h, then lysed; direct action on the proteasome not shown; 6 µM substrate, pH 7.5, 37 °C; mutation in the neighbouring β2 subunit, β5 wild type
T4 construct: gene beta5

| SMILES | % activity [1] | % activity [2] | % activity [3] | inhibition at 3 µM [4] [%] | % inhibition at 3 μM [5] [%] |
| --- | --- | --- | --- | --- | --- |
| C[C@@H]1CC[C@H]2[C@@H](C)C(O)O[C@@H]3O[C@@]4(C)CC[C@@H]1[C@]32OO4 (some centres unmarked) [DHA] | DHA inhibited all three catalytic subunits of proteasomes derived from Kelch13^WT | DHA inhibited all three catalytic subunits of proteasomes derived from Kelch13^WT | DHA inhibited all three catalytic subunits of proteasomes derived from Kelch13^WT | – | – |
| c1cc(C2CCC3(CC2)OOC2(O3)C3CC4CC(C3)CC2C4)ccc1OCCN1CCOCC1 (centres unmarked) [OZ439] | – | – | – | 28 | 52 |
